From US20210236657A1, “NERVE-SPECIFIC FLUOROPHORE FORMULATIONS FOR DIRECT AND SYSTEMIC ADMINISTRATION” (OREGON HEALTH & SCIENCE UNIVERSITY, priority 2018, published 2021)

Assays:
[1] = tested on: brachial plexus and sciatic nerves; assay: Formulation nerve-specificity screening after systemic administration; assay type: in vivo, mice; details: preclinical mouse models
Protocol: Ox4 and LGW01-08 solubilized in each formulation were screened in mice following systemic administration for nerve specificity. 200 nmol of LGW01-08 in 100 μL of the four prepared formulations were administered intravenously to n=3 mice 4 hours before nerve imaging. The four hour fluorophore to imaging window had been previously shown to provide the highest nerve to background tissue fluorescence for Oxazine 4 and several other nerve specific fluorophores. Gibbs-Strauss et al. Molecular imaging 10, 91-101 (2011); Park et al. Theranostics 4, 823-833 (2014); Barth & Gibbs. Theranostics 7, 573-593 (2017). Uninjected animals were used for all control images (n=3 mice or 12 nerve sites/formulation).
Intraoperative Fluorescence Imaging Systems. A custom-built small animal imaging system capable of real-time color and fluorescence imaging was used to acquire rodent in vivo images. The imaging system consisted of a QImaging EXi Blue monochrome camera (Surrey, British Columbia, CA) for fluorescence detection with a removable Bayer filter for collecting co-registered color and fluorescence images. […] For fluorescence excitation, the PhotoFluor II was filtered with a 620±30 nm bandpass excitation filter. Resulting fluorescence was collected with a 700±37.5 nm bandpass emission filter for image collection. […] Camera exposure times ranged from 10-2000 ms for fluorescence image collection. […]

[2] = tested on: brachial plexus and sciatic nerves; assay: Fluorescence imaging time course after systemic administration; assay type: in vivo, mice; details: 2 mg/kg, 24 hours after systemic administration, all formulations
Text: Drug release pharmacokinetics (PK) and biodistribution (BioD) studies were completed in mice systemically administered DSPE-PEG micelle, cyclodextrin or co-solvent formulated LGW01-08 for equivalent comparison, explained as follows. […] Following blood collection via cardiac puncture, fluorescence and color images were acquired of the brain, lungs, liver, stomach, intestines, pancreas, spleen, kidney, bladder, brachial plexus, and sciatic nerves (n=3 mice per time point per formulation). Additionally, brain, lung, heart, liver, and kidney tissues were collected for liquid chromatography mass spectroscopy (LCMS/MS) analysis (n=5 mice per time point per formulation). The pharmacokinetic parameters were calculated from blood uptake kinetics data by non-compartmental analysis using Phoenix 64 (Certara, Princeton, N.J.), including the area under the concentration versus time curve from 0 to ∞ (AUC0-∞), plasma volume of distribution (Vd), clearance (CL) and half-life (t1/2). Nerve specific contrast and tissue biodistribution intensities were assessed for all initial testing, PK, BioD, and PD studies using the intraoperative fluorescence imaging systems to collect images of the nerves and surrounding tissue as well as the additional tissues for biodistribution assessment. Additional unstained control animals were imaged to assess tissue autofluorescence. […]

[3] = Pharmacokinetics and biodistribution by LCMS/MS; assay type: in vivo, mice; details: 2 mg/kg
Protocol: Drug release pharmacokinetics (PK) and biodistribution (BioD) studies were completed in mice systemically administered DSPE-PEG micelle, cyclodextrin or co-solvent formulated LGW01-08 for equivalent comparison, explained as follows. Formulated LGW1-08 was injected at a 2 mg/kg dose and blood collection was completed at the time points of 0, 0.5, 1, 2, 4, 8, and 24 hours post injection (n=5 mice per time point per formulation). Following blood collection via cardiac puncture, fluorescence and color images were acquired of the brain, lungs, liver, stomach, intestines, pancreas, spleen, kidney, bladder, brachial plexus, and sciatic nerves (n=3 mice per time point per formulation). Additionally, brain, lung, heart, liver, and kidney tissues were collected for liquid chromatography mass spectroscopy (LCMS/MS) analysis (n=5 mice per time point per formulation). The pharmacokinetic parameters were calculated from blood uptake kinetics data by non-compartmental analysis using Phoenix 64 (Certara, Princeton, N.J.), including the area under the concentration versus time curve from 0 to ∞ (AUC0-∞), plasma volume of distribution (Vd), clearance (CL) and half-life (t1/2).

[4] = tested on: brachial plexus and sciatic nerves; assay: Dose ranging pharmacodynamics imaging studies; assay type: in vivo, mice; details: two hours post injection
Protocol: Following PK studies to assess the maximum nerve signal to background ratio (SBR) for LGW1-08 in each formulation (2 hours), dose response pharmacodynamic (PD) studies were completed in mice using a dose range up to the MTD: 0.1, 0.2, 0.3, 0.6, 1, 1.5, 2, 2.5, and 3 mg/kg (n=3 mice per dose per formulation).
Nerve specific contrast and tissue biodistribution intensities were assessed for all initial testing, PK, BioD, and PD studies using the intraoperative fluorescence imaging systems to collect images of the nerves and surrounding tissue as well as the additional tissues for biodistribution assessment. Additional unstained control animals were imaged to assess tissue autofluorescence.
Custom written MatLab code was used to analyze the tissue specific fluorescence where regions of interest (ROIs) were selected using the white light images. These ROIs were then analyzed on the co-registered matched fluorescence images permitting assessment of the mean tissue intensities and nerve signal to background ratios. Intensity measurements were divided by the exposure time to obtain normalized intensity per second measurements.

[5] = LGW01-08 solubility and loading in formulations (spectrophotometric quantification); assay type: physicochemical
Protocol: Based on the solubility of the nerve specific dye, liposomes sphingomyelin cholesterol (55:45), a FDA approved lipid mix was considered first for encapsulation of the agent as the lipid vesicles have both the lipid bilayer and hydrophilic core. Two common methods for preparation of liposomes are passive and pH gradient method. For passive loading method, both LGW01-08 and lipids were dissolved in a mixture of chloroform and methanol (70:30) and subjected to rotary evaporation under vacuum. […]
The next delivery platform which could increase the solubility of the nerve dye without compromising the nerve specificity was micelles. […] Commercially available (A-B-A block), PLURONIC® ethylene oxide-propylene oxide block co-polymer capable of self-assembly to form micelle was evaluated for encapsulating the nerve dye. […] The supernatant was passed through a 0.22μ filter and analyzed for nerve dye loading.
In order to achieve higher encapsulation, two more polymeric micelle platforms: Poly(ethylene glycol)(2 k)-block-poly(D,L-lactic acid) (1.8 k) (PEG-b-PLA) and Distearyl-phosphatidylethanolamine-PEG2000 (DSPE-PEG) were evaluated. […] Triplicate samples were prepared for quantification by diluting the complex 100-fold in 10% triton solution. […]
HP-β-CD complex was prepared by the solvent casting method. […] Triplicate samples were prepared for quantification by diluting the complex 100-fold in 10% triton solution. […]

nerve = details: Park et al. Theranostics 4, 823-833 (2014); cited from earlier work
[6] = DSPE-PEG micelle and cyclodextrin formulations

Compound | nerve specificity following systemic administration [1] | nerve fluorescence signal intensities [2] | blood concentrations over time ([3]; all formulations) | LGW01-08 cleared from the tissue ([3]; by 4 hours post injection) | nerve SBRs across all doses tested ([4]; 0.1-3 mg/kg) | dose at which fluorescence intensity values were highest [4, 6] [mg/kg] | fluorescence intensity values at the 0.1 mg/kg dose [4, 6] | dose up to which nerve to adipose background ratios increased [4] [mg/kg] | dose up to which nerve to muscle background ratios increased [4] [mg/kg] | solubility [5] [µg/mL] | nerve specificity (nerve)
CCNc1cc2oc3cc(=[N+](CC)CC)ccc-3nc2cc1C [LGW1-08, N-ethyl-N-(7-(ethylamino)-8-methyl-3H-phenoxazin-3-ylidene)ethanaminium] | high nerve specificity | close to baseline autofluorescence levels | decreased quickly | 90-99% | No significant difference | 2.5 | decreased to autofluorescence levels | 1.5 | 0.6 | 250 | 
Oxazine 4 perchlorate |  |  |  |  |  |  |  |  |  |  | high nerve-specificity
